# Assay results as given in ChEMBL document CHEMBL1201862, “PubChem BioAssay data set” (2004).
# The source made the active and inactive calls. How the calls were made is not given here.
# Tests used:
# [1] = Vero cell cytotoxicity, dose response, cytotoxicity control for Vif-APOBEC3G degradation inhibitor project, Vero cells (AID 1117358); format: functional; conditions: Human immunodeficiency virus 1, Vero
# [2] = inhibitors of Vif binding to APOBEC3G peptide, primary screen, biochemical, TR-FRET, GST-Vif 1-94, biotin-A3G peptide, dose response retest (AID 1117319); format: functional;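 further: TR-FRET signal of purified GST-Vif binding a biotinylated A3G peptide; inhibitors lower the FRET signal by blocking Vif and A3G binding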
# Nonstructural protein 1 = Nonstructural protein 1 (Influenza A virus, UniProt Q194T2); format: functional, Influenza A virus (A/California/07/2009(H1N1))
# Nonstructural protein 1, sequence (Q194T2 whole entry): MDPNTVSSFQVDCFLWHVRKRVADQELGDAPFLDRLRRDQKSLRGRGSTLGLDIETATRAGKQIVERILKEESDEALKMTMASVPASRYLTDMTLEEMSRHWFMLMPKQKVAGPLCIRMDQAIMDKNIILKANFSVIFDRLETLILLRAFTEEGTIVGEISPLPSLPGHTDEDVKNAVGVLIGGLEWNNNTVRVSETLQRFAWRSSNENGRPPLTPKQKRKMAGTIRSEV
# Genome polyprotein = Genome polyprotein (dengue virus type 2, UniProt P29990); test: Dengue-2 NS5 methyltransferase inhibitors, primary screen, biochemical, confirmation dose response (AID 588689); format: functional
# Genome polyprotein, sequence (P29990 2492-3391 limits assumed): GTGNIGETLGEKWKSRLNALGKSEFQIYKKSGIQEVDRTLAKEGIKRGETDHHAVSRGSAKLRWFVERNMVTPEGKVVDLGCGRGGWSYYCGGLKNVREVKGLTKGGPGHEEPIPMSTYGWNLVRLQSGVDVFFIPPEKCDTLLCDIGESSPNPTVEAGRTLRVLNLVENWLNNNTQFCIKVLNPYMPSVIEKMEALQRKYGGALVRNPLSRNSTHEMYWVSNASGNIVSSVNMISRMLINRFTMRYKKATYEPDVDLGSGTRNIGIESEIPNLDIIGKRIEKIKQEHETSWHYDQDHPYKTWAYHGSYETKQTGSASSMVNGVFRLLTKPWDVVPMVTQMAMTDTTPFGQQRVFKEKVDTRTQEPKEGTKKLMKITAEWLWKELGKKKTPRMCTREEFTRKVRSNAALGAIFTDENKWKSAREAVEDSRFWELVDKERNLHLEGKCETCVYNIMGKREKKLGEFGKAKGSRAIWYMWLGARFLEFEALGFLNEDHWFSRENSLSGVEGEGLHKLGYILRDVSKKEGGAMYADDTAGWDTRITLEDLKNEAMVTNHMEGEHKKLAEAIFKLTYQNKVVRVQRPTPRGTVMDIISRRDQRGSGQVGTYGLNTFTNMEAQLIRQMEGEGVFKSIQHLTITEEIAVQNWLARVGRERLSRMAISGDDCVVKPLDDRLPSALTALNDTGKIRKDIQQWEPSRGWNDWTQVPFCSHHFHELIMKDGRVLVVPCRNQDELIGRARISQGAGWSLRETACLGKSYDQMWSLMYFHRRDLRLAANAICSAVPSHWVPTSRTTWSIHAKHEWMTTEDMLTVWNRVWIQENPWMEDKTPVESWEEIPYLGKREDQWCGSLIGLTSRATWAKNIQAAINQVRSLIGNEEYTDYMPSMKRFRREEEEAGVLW
# Vero [3] = test: Vero cell cytotoxicity, cytotoxicity control for flavivirus capping enzyme inhibitors (AID 588742); format: functional; conditions: Chlorocebus sabaeus
# [4] = molecular target: T1, Long-chain-fatty-acid--AMP ligase FadD28 (Mycobacterium tuberculosis, UniProt P9WQ59); test: Fluorescence polarization aasay to screen for inhibitors that compete for the binding of FadD28 to a bisubstrate Measured in Biochemical System Using Plate Reader - 2147-01_Inhibitor_Dose_CherryPick_Activity.; format: functional, Mycobacterium tuberculosis H37Rv
# T1 sequence (P9WQ59 whole entry): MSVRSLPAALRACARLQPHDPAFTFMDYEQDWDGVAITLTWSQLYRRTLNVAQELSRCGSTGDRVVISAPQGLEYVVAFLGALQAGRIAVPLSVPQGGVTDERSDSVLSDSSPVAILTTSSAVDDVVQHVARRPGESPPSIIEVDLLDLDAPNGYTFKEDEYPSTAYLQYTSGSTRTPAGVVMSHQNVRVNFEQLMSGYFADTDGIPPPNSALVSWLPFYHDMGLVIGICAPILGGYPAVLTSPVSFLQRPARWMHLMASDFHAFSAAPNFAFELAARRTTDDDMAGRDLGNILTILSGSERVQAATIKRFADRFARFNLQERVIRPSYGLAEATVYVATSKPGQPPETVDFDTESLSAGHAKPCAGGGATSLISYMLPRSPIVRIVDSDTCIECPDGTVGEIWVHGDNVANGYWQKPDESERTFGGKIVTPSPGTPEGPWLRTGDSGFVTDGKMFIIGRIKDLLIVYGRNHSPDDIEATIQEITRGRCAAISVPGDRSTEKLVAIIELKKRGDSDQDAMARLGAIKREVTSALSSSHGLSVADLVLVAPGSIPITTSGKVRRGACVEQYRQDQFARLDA
# [5] = molecular target: Bifunctional protein GlmU (Mycobacterium tuberculosis, UniProt P9WMN3); test: Inhibitors of Mycobacterial Glucosamine-1-phosphate acetyl transferase (GlmU). Secondary screen.; design: species or system Mycobacterium tuberculosis H37Rv
# Bifunctional protein GlmU, sequence (P9WMN3 whole entry): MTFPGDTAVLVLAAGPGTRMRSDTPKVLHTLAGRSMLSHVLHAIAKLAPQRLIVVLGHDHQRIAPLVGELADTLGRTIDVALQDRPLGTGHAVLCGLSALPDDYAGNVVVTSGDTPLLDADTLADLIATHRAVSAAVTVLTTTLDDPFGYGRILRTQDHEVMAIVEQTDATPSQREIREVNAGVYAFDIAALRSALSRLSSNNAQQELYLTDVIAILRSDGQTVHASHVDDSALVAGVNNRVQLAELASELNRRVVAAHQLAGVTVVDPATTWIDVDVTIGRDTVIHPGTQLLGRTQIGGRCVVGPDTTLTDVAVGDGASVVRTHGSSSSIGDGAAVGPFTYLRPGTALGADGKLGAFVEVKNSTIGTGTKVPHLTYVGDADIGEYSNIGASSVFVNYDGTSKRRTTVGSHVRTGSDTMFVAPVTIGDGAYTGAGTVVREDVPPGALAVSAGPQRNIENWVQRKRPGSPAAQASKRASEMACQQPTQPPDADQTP
# Large T antigen = Large T antigen (Simian virus 40, UniProt P03070); format: functional, Betapolyomavirus macacae;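 further: Confirmatory-stage PubChem screen for compounds that inhibit SV40 T antigen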
# Large T antigen, sequence (P03070 whole entry): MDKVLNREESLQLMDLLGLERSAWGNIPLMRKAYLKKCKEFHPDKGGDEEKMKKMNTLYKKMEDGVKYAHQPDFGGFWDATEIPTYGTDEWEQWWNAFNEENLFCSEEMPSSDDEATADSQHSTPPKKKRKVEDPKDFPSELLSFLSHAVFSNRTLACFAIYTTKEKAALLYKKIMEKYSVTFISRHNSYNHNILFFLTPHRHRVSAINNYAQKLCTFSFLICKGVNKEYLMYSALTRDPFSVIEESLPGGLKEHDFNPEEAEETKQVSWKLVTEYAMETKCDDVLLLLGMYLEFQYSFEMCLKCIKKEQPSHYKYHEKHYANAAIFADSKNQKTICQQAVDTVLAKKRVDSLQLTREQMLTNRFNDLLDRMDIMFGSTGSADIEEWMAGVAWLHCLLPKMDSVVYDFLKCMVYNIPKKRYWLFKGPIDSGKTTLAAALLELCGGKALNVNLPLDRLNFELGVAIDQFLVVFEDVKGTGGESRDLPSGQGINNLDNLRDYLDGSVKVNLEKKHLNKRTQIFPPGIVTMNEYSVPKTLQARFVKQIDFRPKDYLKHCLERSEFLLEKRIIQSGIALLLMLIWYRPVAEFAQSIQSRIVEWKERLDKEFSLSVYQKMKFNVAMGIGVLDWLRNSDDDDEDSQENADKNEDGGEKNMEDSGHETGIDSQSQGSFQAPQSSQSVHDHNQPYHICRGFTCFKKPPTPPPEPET
# Vero [6] = test: cells; format: functional; conditions: Chlorocebus sabaeus
# Aminopeptidase N = molecular target: T2, Aminopeptidase N (Plasmodium falciparum FcB1/Columbia, UniProt O96935); test: P. falciparum M1AAP inhibitors, biochemical, fluorogenic H-Leu-NHMec substrate, 1536-well (AID 1445); design: species or system Plasmodium falciparum 3D7, 3D7
# T2 sequence (O96935 whole entry): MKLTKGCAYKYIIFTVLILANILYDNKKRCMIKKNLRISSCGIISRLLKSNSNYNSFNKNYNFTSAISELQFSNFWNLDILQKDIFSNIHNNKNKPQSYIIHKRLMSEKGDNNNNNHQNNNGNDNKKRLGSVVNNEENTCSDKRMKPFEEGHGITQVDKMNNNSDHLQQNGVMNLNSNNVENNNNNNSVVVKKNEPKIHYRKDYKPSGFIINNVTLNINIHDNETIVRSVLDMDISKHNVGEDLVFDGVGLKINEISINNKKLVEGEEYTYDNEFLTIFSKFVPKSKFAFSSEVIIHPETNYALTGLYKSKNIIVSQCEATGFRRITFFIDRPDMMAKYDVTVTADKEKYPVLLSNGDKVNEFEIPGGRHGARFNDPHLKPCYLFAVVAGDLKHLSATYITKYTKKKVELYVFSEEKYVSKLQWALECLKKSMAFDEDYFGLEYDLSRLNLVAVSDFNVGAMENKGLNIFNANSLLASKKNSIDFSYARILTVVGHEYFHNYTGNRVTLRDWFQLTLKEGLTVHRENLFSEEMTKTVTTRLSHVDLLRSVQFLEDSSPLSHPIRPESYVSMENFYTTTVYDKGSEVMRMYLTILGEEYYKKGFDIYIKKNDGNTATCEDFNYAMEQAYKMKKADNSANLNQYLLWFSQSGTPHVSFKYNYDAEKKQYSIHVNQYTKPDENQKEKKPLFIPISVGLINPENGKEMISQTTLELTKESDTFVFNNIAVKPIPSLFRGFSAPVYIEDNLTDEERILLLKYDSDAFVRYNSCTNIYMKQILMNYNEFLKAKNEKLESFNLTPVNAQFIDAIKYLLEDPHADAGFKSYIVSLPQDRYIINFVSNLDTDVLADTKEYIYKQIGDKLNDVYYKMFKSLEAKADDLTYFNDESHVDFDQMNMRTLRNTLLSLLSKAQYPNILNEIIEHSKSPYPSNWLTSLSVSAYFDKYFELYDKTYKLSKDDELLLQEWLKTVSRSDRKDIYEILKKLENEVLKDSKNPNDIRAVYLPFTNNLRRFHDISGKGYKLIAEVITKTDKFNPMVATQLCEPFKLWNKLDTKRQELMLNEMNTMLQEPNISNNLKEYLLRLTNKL
# [7] = molecular target: Induced myeloid leukemia cell differentiation protein Mcl-1 (Homo sapiens, UniProt Q07820); format: functional
# Induced myeloid leukemia cell differentiation protein Mcl-1, sequence (Q07820 whole entry): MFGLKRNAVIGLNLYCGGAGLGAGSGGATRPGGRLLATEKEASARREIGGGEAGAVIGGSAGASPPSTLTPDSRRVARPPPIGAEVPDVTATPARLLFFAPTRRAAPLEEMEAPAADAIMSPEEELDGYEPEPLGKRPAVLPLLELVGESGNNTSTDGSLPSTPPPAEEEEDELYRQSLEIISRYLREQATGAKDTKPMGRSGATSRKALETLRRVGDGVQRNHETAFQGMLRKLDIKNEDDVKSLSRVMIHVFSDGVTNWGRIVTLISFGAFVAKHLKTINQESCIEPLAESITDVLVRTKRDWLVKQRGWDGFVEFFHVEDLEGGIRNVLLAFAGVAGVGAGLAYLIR
# [8] = molecular target: T3, High affinity choline transporter 1 (Homo sapiens, UniProt Q9GZV3); test: CHT inhibitors, dose response, cell-based, 5-point CRC, membrane potential dye (AID 504840); format: functional
# T3 sequence (Q9GZV3 whole entry): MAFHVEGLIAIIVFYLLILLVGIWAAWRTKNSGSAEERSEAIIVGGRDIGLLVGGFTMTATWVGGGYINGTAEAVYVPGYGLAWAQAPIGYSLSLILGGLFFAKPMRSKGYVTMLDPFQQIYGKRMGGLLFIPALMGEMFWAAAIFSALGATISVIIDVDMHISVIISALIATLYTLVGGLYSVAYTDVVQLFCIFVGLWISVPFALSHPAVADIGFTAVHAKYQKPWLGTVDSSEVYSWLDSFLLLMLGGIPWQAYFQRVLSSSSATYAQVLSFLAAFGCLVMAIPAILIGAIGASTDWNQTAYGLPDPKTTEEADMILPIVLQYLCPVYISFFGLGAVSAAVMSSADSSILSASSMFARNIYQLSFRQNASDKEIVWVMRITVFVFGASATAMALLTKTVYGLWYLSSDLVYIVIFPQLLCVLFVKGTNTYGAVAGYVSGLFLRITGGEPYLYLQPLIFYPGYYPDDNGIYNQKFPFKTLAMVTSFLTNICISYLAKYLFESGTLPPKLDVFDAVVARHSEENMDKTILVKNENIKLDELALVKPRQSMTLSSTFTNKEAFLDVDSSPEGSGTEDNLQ
Structure (SMILES),CC50 [1],IC50 [2],IC50 (Nonstructural protein 1),IC50 (Genome polyprotein),CC50 (Vero [3]),AC50 [4],IC50 [5],IC50 (Large T antigen),CC50 (Vero [6]),IC50 (Aminopeptidase N),IC50 [7],IC50 [8]
O=C(Nc1cccc(C(F)(F)F)c1)c1cccnc1NCCc1ccccc1,> 40 µM (active),,,,,,,,,,,
CC(C)N1CCC2(CC1)C(C#N)=C(N)NC(S)=C2C#N,> 40 µM (active),> 100 µM (active),,,,,,,,,,
COc1cc(/C=C2/C(=O)c3cccc([N+](=O)[O-])c3C2=O)c(Br)cc1O,,,20.9 µM (active),7.44 µM (active),34 µM (active),> 100 µM (inactive),60.9 µM (active),13.9 µM (active),16.4 µM (active),5.94 µM (active),1.39 µM (active),9.13 µM (active)
